One series deals with Cannabinoid receptor 1 (Homo sapiens, UniProt P21554). Description: Binding affinity to human CB1 receptor expressed in CHO cells by radioligand displacement based scintillation counting analysis. It is filed as cell-based.
Series [1] can be described thus: Lipophilicity, log P of the compound by HPLC analysis. The series is classed as physicochemical.
The subject of the next series is Liver microsome. Description: Clearance in rat liver microsomes at 1 to 3 uM after 20 mins by LC/MS/MS analysis. (Microsomes from liver hold many membrane-bound enzymes, among them those of drug oxidation.)
The nature of series [2]: Fraction unbound in rat plasma at 10 uM by equilibrium dialysis method. The series is classed as ADME, cell-free. (In equilibrium dialysis only unbound substance equilibrates across the membrane.)
Series [3] in a line: Elimination half life in iv dosed dog. It is filed as ADME, organism-based, Canis lupus familiaris. The following applies: in vivo, read-out: beta t1/2 (converted).
Series [4] in a line: Elimination half life in iv dosed cynomolgus monkey. It is filed as ADME, organism-based, Macaca fascicularis. Particulars: in vivo, read-out: beta t1/2 (converted).
Series [5] is described as follows: Terminal half life in Sprague-Dawley rat at 3 mg/kg, iv. It is filed as ADME, organism-based. Set-up: dose 3 mg/kg, route intravenous. Particulars: in vivo, read-out: beta t1/2 (converted).
Another series has as its target Cytochrome P450 2C19 (Homo sapiens, UniProt P33261). Description: Inhibition of human recombinant CYP2C19. It is filed as ADME.
The nature of series [6]: Fraction unbound in human plasma at 10 uM by equilibrium dialysis method. It is filed as ADME, cell-free.
The test system of series [7] is Rattus norvegicus. Description: Antiobesity activity in rat assessed as reduction in body weight at 10 mg/kg after 4 days. It is filed as functional. Set-up: scale not given: the % may be the effect or the level left.
Series [8] can be described thus: Drug excretion in bile duct-cannulated rat at 5 mg/kg, po. It is filed as ADME, organism-based. Particulars: read-out: Drug excretion. Details: dose 5 mg/kg, route oral.
The test system of series [9] is Rattus norvegicus. In words: Antiobesity activity in rat assessed as reduction in body weight at 3 mg/kg after 4 days. It is filed as functional. Set-up: scale not given: the % may be the effect or the level left.
Series [10] can be described thus: Drug excretion in bile duct-cannulated rat bile assessed as M + 2O-2H and M + O + glucuronide level at 5 mg/kg, po after 48 hrs. It is filed as ADME, organism-based. Set-up: dose 5 mg/kg, route oral. Particulars: in vivo.
Series [11] relates to Rattus norvegicus. Description: Antiobesity activity in diet-induced obese rat as reduction in body weight at 3 mg/kg, po after 28 days. The series is classed as functional. Details: scale not given: the % may be the effect or the level left.
Series [12] relates to Rattus norvegicus. Description: Drug excretion in bile duct-cannulated rat assessed as M + 2O-2H level at 5 mg/kg, po. The series is classed as ADME, organism-based. Details: dose 5 mg/kg, route oral. Particulars: in vivo.
The target in another series is Cytochrome P450 2C9 (Homo sapiens, UniProt P11712). In words: Inhibition of human recombinant CYP2C9. It is filed as ADME.
The subject of series [13] is Rattus norvegicus. In words: Drug excretion in bile duct-cannulated rat assessed as M + O + glucuronide level at 5 mg/kg, po. The series is classed as ADME, organism-based. Details: dose 5 mg/kg, route oral. The following applies: in vivo.
Series [14] is described as follows: Drug excretion in bile duct-cannulated rat urine assessed as M + 2O-2H and M + O + glucuronide level at 5 mg/kg, po after 48 hrs. Particulars: in vivo. Set-up: dose 5 mg/kg, route oral. It is filed as ADME, organism-based.
In series [15] the test system is Rattus norvegicus. In words: Antiobesity activity in diet-induced obese rat as reduction in body weight at 10 mg/kg, po after 28 days. It is filed as functional. Details: scale not given: the % may be the effect or the level left.
Series [16] deals with Rattus norvegicus. Description: Antiobesity activity in diet-induced obese rat as reduction in body weight at 1 mg/kg, po after 28 days. The series is classed as functional. Set-up: scale not given: the % may be the effect or the level left.
For the next series, the target named is Cytochrome P450 3A4 (Homo sapiens, UniProt P08684). In words: Inhibition of human recombinant CYP3A4.
Series [17] in a line: Aqueous solubility of the compound. The series is classed as physicochemical. The following applies: buffer.
Series [18] is described as follows: Drug excretion in bile duct-cannulated rat bile at 5 mg/kg, po after 48 hrs. The series is classed as ADME, organism-based. Details: dose 5 mg/kg, route oral. Particulars: read-out: Drug excretion.
Series [19] is described as follows: Oral bioavailability in Sprague-Dawley rat. The series is classed as ADME, organism-based. Particulars: in vivo.
Series [20] can be described thus: Metabolic stability in rat hepatocytes assessed as compound remaining at 0.5 to 3 uM after 2 hrs by LC-MS/MS analysis. The following applies: read-out: Stability. It is filed as ADME, cell-based, Hepatocyte.
A short description of series [21]: Oral bioavailability in cynomolgus monkey. The series is classed as ADME, organism-based, Macaca fascicularis. The following applies: in vivo.
A short description of series [22]: Oral bioavailability in dog. It is filed as ADME, organism-based, Canis lupus familiaris. The following applies: in vivo.
Series [23] is described as follows: Elimination half life in human. Particulars: in vivo, read-out: beta t1/2 (converted). It is filed as ADME, organism-based.
The subject of series [24] is Rattus norvegicus. Description: Antiobesity activity in rat assessed as reduction in body weight at 10 mg/kg, qd after 4 days. It is filed as functional. Set-up: scale not given: the % may be the effect or the level left.

Values after ≈ are worked out from the molar mass of the structure shown.

Sequence of Cytochrome P450 2C9 (P11712 whole entry): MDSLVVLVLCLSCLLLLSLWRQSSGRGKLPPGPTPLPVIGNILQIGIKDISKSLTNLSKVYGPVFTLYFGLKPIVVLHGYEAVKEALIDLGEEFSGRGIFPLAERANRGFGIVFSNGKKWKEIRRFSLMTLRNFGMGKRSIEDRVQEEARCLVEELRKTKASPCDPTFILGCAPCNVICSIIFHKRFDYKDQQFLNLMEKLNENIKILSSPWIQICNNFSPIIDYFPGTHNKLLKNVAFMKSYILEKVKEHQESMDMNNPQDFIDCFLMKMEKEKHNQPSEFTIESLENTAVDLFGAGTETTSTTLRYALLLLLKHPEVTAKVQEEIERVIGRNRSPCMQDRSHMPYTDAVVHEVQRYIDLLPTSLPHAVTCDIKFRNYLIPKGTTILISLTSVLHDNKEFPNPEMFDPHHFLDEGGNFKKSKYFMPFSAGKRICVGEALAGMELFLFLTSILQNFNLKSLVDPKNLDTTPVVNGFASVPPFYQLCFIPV
Sequence of Cytochrome P450 3A4 (P08684 whole entry): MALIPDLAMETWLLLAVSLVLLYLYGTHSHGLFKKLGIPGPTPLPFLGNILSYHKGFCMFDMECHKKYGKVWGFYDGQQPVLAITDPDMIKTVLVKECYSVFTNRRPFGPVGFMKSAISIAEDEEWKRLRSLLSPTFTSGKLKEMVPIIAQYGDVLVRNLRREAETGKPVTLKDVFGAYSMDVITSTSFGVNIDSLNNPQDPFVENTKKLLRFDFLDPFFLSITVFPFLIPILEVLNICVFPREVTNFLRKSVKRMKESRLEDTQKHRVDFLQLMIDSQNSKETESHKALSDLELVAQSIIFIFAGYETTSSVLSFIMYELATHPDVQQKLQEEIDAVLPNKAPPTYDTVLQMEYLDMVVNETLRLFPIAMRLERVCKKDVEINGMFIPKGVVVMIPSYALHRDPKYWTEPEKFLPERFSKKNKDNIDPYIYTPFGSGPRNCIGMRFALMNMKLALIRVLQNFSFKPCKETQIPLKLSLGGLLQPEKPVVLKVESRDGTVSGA
Sequence of Cannabinoid receptor 1 (P21554 whole entry): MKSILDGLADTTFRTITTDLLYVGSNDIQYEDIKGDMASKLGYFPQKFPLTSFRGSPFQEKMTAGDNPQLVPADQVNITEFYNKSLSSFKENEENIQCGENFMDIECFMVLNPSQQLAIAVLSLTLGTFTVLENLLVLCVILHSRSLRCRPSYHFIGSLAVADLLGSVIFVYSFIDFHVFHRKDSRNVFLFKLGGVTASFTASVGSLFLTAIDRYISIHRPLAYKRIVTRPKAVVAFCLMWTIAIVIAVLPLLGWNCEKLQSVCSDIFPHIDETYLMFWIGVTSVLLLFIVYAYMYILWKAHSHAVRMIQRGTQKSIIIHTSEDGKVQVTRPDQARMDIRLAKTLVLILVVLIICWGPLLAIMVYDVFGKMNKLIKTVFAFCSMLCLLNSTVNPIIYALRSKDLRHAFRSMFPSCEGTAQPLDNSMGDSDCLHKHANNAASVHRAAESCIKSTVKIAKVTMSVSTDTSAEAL
Sequence of Cytochrome P450 2C19 (P33261 whole entry): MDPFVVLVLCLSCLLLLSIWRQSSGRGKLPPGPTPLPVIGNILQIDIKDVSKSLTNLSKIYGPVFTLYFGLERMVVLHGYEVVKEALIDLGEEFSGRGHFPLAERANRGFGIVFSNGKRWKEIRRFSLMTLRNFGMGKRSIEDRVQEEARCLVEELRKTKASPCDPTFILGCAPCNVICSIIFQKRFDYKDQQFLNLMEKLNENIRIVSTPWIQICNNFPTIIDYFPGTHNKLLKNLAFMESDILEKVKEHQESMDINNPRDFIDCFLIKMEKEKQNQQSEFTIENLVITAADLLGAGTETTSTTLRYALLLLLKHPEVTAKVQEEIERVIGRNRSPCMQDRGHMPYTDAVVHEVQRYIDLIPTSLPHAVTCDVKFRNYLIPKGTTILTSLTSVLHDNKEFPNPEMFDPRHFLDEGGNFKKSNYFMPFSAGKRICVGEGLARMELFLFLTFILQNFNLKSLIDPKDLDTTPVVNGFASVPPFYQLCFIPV

In general, Ki refers to a dissociation constant, usually derived from enzyme kinetics or from competition with a known ligand. The term logP denotes a log measure of how a compound divides between an organic and an aqueous phase. In turn, `CCn1nc2c(-c3ccc(Cl)cc3)c(-c3ccc(C#N)c(C)c3)c(=O)n(Cc3ccc(C(F)(F)F)nc3C)n2c1=O` had a Ki on Cannabinoid receptor 1 of 3 nM. In addition, the logP in series [1] amounted to 5. In the series with Liver microsome, this molecule gave a CLH of 0 nmol/min/mg.

Turning to `CCc1nc(C(F)(F)F)ccc1Cn1c(=O)c(-c2ccc(C#N)cc2)c(-c2ccc(Cl)cc2)c2nn(CC)c(=O)n21`, the Ki on Cannabinoid receptor 1 was 1.6 nM. For the same molecule, in series [1], the logP came out at 5. In the series with Liver microsome, this molecule came in with a CLH of 0.152 nmol/min/mg.

Consider `Cc1nc(C(F)(F)F)ccc1Cn1c(=O)c(-c2ccc(C#N)cc2)c(-c2ccc(Cl)cc2)c2nn(C(C)C)c(=O)n21`, for which, at Cannabinoid receptor 1, the Ki was 1.9 nM. In series [1], this molecule gave a logP of 5.2. Also, the CLH in the series with Liver microsome was 0.014 nmol/min/mg.

With `CCn1nc2c(-c3ccc(Cl)cc3)c(-c3ccc(C#N)cc3)c(=O)n(Cc3ccc(C)cc3)n2c1=O`, the Ki on Cannabinoid receptor 1 was 12 nM. This molecule also had a logP in series [1] of 5.2.

In the case of `CCn1nc2c(-c3ccc(C)cc3)c(-c3ccc(C#N)cc3)c(=O)n(Cc3ccc(C(F)(F)F)nc3C)n2c1=O`, the Ki on Cannabinoid receptor 1 amounted to 2.9 nM. The logP in series [1] was 4.6. Moreover, the CLH with Liver microsome was determined as 0.052 nmol/min/mg.

The term fraction unbound denotes free concentration divided by total concentration. For the molecule `CCn1nc2c(-c3ccc(Cl)cc3)c(-c3ccc(C#N)cc3)c(=O)n(Cc3ccc(C#N)cc3)n2c1=O`, the fraction unbound at 10 µM in series [2] is 0.01. On Cannabinoid receptor 1, this molecule registered a Ki of 5 nM. Also, the half-life was 45 h in series [3] and 8 h in [4]. In [1], the logP is 4.2.

On to `CCn1nc2c(-c3ccc(Cl)cc3)c(-c3ccc(CO)nc3)c(=O)n(Cc3ccc(C(F)(F)F)nc3C)n2c1=O`, for which the fraction unbound at 10 µM in series [2] is 0.09. Besides, at Cannabinoid receptor 1, the Ki is 5 nM. Further, the half-life in series [3] was 7 h; in series [4] it was 9 h; in series [5], 1.1 h. In addition, the logP in series [1] was 3.6.

Usually IC50 stands for the point on the concentration scale where inhibition reaches its midpoint. As usually defined, the solubility is the dissolved amount per volume that the medium holds. What is called bioavailability is the share of a dose that reaches the circulation, judged against a reference dose that is usually intravenous. Regarding `CCn1nc2c(-c3ccc(Cl)cc3)c(-c3cnc(C)nc3)c(=O)n(Cc3ccc(C(F)(F)F)nc3C)n2c1=O`, the IC50 at Cytochrome P450 2C19, at Cytochrome P450 2C9 and on Cytochrome P450 3A4 was above 40000 nM throughout. Also, the results for the fraction unbound at 10 µM in series [6] and in series [2] were 0.07 and 0.13, respectively. The Activity was determined as 7.2% in the series with Rattus norvegicus [7]; 2.8% in the series on Rattus norvegicus [9]; 4.1% in the series on Rattus norvegicus [11]; 10.2% in the series with Rattus norvegicus [15]; 2.4% with Rattus norvegicus [16]. For the same molecule, the dose excreted in series [8] is below 1%. The Drug excretion is given as 76 %ID in series [10], 36 %ID with Rattus norvegicus [12], 26 %ID with Rattus norvegicus [13] and 7 %ID in series [14]. This molecule also had an inhibition constant Ki on Cannabinoid receptor 1 of 4.7 nM. Also, the half-life was 42 h in series [3], 12 h in series [4] and 5 h in series [5]. In addition, the logP in [1] worked out at 3.8. In series [17], this molecule returned a solubility of 17 µg/mL (≈ 30.6 µM). Also, the dose excreted at 48 h in series [18] was determined as 0.8%. Also, the bioavailability in series [19] was 73%; in series [21], 51%; in series [22] it was 75%. Further, the remaining at 2 h, 3 µM in [20] worked out at 5%.

On to `CCn1nc2c(-c3ccc(Cl)cc3)c(-c3ccncc3F)c(=O)n(Cc3ccc(C(F)(F)F)nc3C)n2c1=O`, for which the half-maximal inhibitory concentration (IC50) turned out to be 5000 nM at Cytochrome P450 2C19, 14000 nM at Cytochrome P450 2C9 and 7000 nM at Cytochrome P450 3A4. The inhibition constant Ki on Cannabinoid receptor 1 is 3.2 nM. This molecule also came in with a lipophilicity (logP) in [1] of 4.3.

Turning to `CCn1nc2c(-c3ccc(Cl)cc3)c(-c3cnn(C)c3)c(=O)n(Cc3ccc(C#N)cc3)n2c1=O`, the figures for the IC50 at Cytochrome P450 2C19, on Cytochrome P450 2C9 and at Cytochrome P450 3A4 were above 40000 nM, above 40000 nM and 3400 nM, respectively. This molecule had a Ki on Cannabinoid receptor 1 of 92 nM. Besides, in series [1], the logP was determined as 3.8.

As to `CCn1nc2c(-c3ccc(Cl)cc3)c(-c3cnc(N(C)C)nc3)c(=O)n(Cc3ccc(C#N)cc3)n2c1=O`, the IC50 at Cytochrome P450 2C19, at Cytochrome P450 2C9 and on Cytochrome P450 3A4 was above 40000 nM in each case. The Ki at Cannabinoid receptor 1 worked out at 77 nM. In addition, the logP in series [1] was determined as 4.3.

As for `CCNC1(C(N)=O)CCN(c2ncnc3c2nc(-c2ccccc2Cl)n3-c2ccc(Cl)cc2)CC1` [OTENABANT], the half-life in series [23] is 120 h.

Regarding `Cc1c(C(=O)NN2CCCCC2)nn(-c2ccc(Cl)cc2Cl)c1-c1ccc(Cl)cc1` [RIMONABANT], in [23], the half-life is 216 h. Besides, the Activity with Rattus norvegicus [15] was 6.2%; with Rattus norvegicus [24] it was 5%.

`C[C@H](NC(=O)C(C)(C)Oc1ccc(C(F)(F)F)cn1)[C@@H](Cc1ccc(Cl)cc1)c1cccc(C#N)c1` [TARANABANT]: in series [23], the half-life is 72 h.
